For experiment [1], the target named is T1, CCK-B (Cavia porcellus, UniProt H0VZC5).
T1 construct: guinea pig brain (CCK-B); from tissue; host or cells: guinea pig brain
The experiment can be described thus: displacement of 125I-CCK from guinea pig brain (CCK-B). The format is binding. The procedure: (§1) The CCK-A and CCK-B antagonising activity of the compounds described herein was evaluated using the assays described in published European patent application no. 0514133. The method essentially involves determining the concentration of the test compound required to displace 50% of the specific ^125 I-CCK from rat pancreas (CCK-A) or guinea pig brain (CCK-B). The data in Table 1 were obtained for the compound of Example 1.
On the technique in general: In a radioligand displacement assay an active substance lowers the binding of a labelled ligand.

Experiment [2] addresses T2, CCK-A (Rattus norvegicus, UniProt P30551).
T2 construct: ^125 I-CCK from rat pancreas (CCK-A); from tissue; host or cells: rat pancreas
T2 sequence (P30551 1-444): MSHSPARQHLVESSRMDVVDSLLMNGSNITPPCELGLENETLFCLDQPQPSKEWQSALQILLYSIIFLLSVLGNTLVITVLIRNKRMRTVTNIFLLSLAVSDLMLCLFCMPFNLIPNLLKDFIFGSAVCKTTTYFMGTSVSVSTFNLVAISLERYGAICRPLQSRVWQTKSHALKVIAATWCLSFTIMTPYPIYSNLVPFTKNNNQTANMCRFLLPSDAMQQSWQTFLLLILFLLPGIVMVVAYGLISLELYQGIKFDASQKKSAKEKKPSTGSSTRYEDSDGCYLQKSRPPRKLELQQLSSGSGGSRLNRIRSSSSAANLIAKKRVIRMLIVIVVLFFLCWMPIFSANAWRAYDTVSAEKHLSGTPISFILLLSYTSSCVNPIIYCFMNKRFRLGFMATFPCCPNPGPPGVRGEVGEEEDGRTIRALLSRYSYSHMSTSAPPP
The experiment can be described thus: displacement of 125I-CCK from rat pancreas (CCK-A). Conditions: 50% displacement of specific 125I-CCK, read-out: CCK receptor binding IC50, 125I-CCK Pancreas. The procedure: as §1

T1 sequence (H0VZC5 entry or part of it): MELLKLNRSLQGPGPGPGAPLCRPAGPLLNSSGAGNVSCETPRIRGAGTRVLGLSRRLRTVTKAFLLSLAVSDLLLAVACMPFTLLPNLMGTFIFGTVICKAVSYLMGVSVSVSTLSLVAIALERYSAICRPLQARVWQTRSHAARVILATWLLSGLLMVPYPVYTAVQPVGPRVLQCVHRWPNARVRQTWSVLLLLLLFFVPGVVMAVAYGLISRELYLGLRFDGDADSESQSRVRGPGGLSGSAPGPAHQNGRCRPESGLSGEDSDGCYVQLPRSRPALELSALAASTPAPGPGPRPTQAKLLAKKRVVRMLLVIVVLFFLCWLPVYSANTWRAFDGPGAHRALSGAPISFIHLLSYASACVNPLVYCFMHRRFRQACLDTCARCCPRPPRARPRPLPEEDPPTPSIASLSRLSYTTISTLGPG

The term IC50 denotes the concentration needed to halve the response being measured. On to `Cc1cccc(NC(=O)NC2N=C(C3CCCCC3)c3ccsc3N(C)C2=O)c1` (racemic) [Example 1, N-[3(R,S)-5-cyclohexyl-2,3-dihydro-1-methyl-2-oxo-1H-1,4-thienodiazepine-3-yl]-N'-(3-methylphenyl) urea], for which the IC50 in experiment [1] stood at 46 nM; in experiment [2], 6.7 nM.

The record behind these values is patent US5602125A, “Thienodiazepine derivatives as cholecystokinin and gastrin antagonists” (Merck, Sharp & Dohme, Ltd., priority 1992, dated 1997).
